According to PubChem BioAssay AID651868 (The Scripps Research Institute Molecular Screening Center, 2012):

Target: Protein-arginine deiminase type-1 (Homo sapiens) (UniProt Q9ULC6)
Assay: PubChem AID 651868
Conditions: recombinant PAD1, citrulline colorimetric, time-dependent inactivation; active compounds read high

Sequence of Protein-arginine deiminase type-1 (Homo sapiens) (Q9ULC6 whole entry, looked up): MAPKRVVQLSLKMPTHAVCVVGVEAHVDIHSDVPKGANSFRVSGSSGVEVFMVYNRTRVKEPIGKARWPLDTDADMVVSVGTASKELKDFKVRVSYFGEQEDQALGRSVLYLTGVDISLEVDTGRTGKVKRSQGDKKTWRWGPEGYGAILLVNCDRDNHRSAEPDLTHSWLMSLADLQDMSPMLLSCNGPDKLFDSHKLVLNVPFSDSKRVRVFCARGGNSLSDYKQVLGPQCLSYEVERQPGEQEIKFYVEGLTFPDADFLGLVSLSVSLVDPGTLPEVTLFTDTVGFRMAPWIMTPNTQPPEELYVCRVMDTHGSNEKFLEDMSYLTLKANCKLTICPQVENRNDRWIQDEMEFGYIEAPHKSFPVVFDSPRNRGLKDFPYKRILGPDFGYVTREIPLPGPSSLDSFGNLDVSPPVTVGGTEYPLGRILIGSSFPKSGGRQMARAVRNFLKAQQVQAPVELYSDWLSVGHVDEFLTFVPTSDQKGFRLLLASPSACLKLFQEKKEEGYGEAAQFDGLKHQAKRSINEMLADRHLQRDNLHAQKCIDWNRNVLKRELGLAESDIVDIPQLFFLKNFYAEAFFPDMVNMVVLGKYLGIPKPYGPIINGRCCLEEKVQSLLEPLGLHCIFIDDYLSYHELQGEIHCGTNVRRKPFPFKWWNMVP

`NC1=CC(=O)c2ccc(-c3cccc(C(=O)O)n3)nc2C1=O` was tested, and the kinact/KI was 58.3 M⁻¹ s⁻¹.
